# Experimental data published in ChEMBL document CHEMBL3091312, “Characterization and anti-inflammatory effects of iodinated acetylenic acids isolated from the marine sponges Suberites mammilaris and Suberites japonicus” (J Nat Prod, 2013).
# Calls of active or inactive are those of the source. The calls are words filed in the database; no cut-off is given here.
# Experiments:
# Assay type in all cases: functional, cell-based
# RAW264.7 [1] = assay: Antiinflammatory activity against mouse RAW264.7 cells assessed as inhibition of LPS-induced NO production preincubated for 1 hr followed by LPS addition measured after 24 hrs by Griess method
# BV-2 [2] = assay: Antiinflammatory activity against mouse BV2 cells assessed as inhibition of LPS-induced PGE2 production at 5 to 10 uM preincubated for 1 hr followed by LPS addition measured after 24 hrs by ELISA
# BV-2 [3] = assay: Antiinflammatory activity against mouse BV2 cells assessed as effect on PGE2 level at 5 to 10 uM after 24 hrs by ELISA relative to control
# RAW264.7 [4] = assay: Antiinflammatory activity against mouse RAW264.7 cells assessed as effect on PGE2 level at 5 to 10 uM after 24 hrs by ELISA relative to control
# [5] = Antiinflammatory activity against mouse BV2 cells assessed as inhibition of LPS-induced NO production preincubated for 1 hr followed by LPS addition measured after 24 hrs by Griess method; conditions: BV-2
# RAW264.7 [6] = assay: Antiinflammatory activity against mouse RAW264.7 cells assessed as inhibition of LPS-induced PGE2 production at 5 to 10 uM preincubated for 1 hr followed by LPS addition measured after 24 hrs by ELISA
IC50 [5] [µM],IC50 (RAW264.7 [1]) [µM],SMILES,inhibition (RAW264.7 [1]),inhibition (BV-2 [2]),Activity (BV-2 [3]),Activity (RAW264.7 [4]),inhibition (RAW264.7 [6])
1.8,–,CCCCC/C=C\CC#CC/C=C\C/C(I)=C\CCCC(=O)OC,inactive,Active,inactive,inactive,–
18,7,C/C=C/CC/C(I)=C\CC#CC/C=C\C/C(I)=C\CCCC(=O)OC,–,–,inactive,inactive,Active
3.1,53.6,C=CCCC/C=C\CC#CC/C=C\C/C(I)=C\CCCC(=O)OC,–,Active,inactive,inactive,–
23.3,3.9,C=C/C=C/C/C(I)=C\CC#CC/C=C\C/C(I)=C\CCCC(=O)OC,–,–,inactive,inactive,Active
